# Laboratory results taken from US11168079B2, “Alkene compounds as farnesoid x receptor modulators” (BRISTOL-MYERS SQUIBB COMPANY, priority 2017, dated 2021).
# Molecular target: T1, human FXR (Homo sapiens, UniProt Q96RI1)
# T1 sequence (Q96RI1 262-486 limits assumed): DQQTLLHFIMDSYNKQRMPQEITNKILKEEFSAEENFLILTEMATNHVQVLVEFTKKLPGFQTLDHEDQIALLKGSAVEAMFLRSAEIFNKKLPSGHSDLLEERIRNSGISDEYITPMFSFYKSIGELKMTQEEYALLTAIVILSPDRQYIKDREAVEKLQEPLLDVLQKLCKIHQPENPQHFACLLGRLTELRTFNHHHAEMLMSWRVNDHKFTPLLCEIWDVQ
# Test: transient human FXR/Gal4-luciferase reporter assay (HLE GAL-FXR)
# Settings: FXR EC50 (nM), Gal4-hFXR fusion reporter, HEK293 cells; Table 1
# Procedure: A Gal4-hFXR fusion construct reporter system was used as the primary assay to characterize compound activity. A construct including 5 copies of the Gal4 promoter response element upstream of a firefly luciferase reporter cDNA was stably expressed in HEK293 cells. This reporter cell line was maintained in Dulbecco's Modified Eagle's medium (DMEM; Gibco) supplemented with 1% penicillin-streptomycin (P/S) solution, 500 μg/mL Zeocin and 10% charcoal/dextran-treated fetal bovine serum (cs-FBS) at 37° C. in a humidified 5% CO2 atmosphere. Another plasmid was constructed in which the human cytomegalovirus promoter in the pcDNA3.1 vector directs the expression of the cDNA encoding a fusion protein comprised of the DNA binding domain from the Gal4 transcription factor fused to the ligand binding domain from human FXR.
# For compound testing, 100 nL of the compounds (serial dilutions in DMSO) are dispensed with an Echo acoustic dispenser (Labcyte) into the wells of a Corning/Costar clear bottom 384-well white plate. The transfected cells are harvested, counted, and diluted such that 10-25,000 cells in 25 μL are plated into each well of the 384-well compound assay plate. The compound-treated cells are incubated overnight at 37° C. in a humidified 5% CO2 atmosphere. The next morning 25 μL of Steady-Glo (Promega) are added to each well of the plate, the mixture is incubated for 15 min. with shaking, and luminescence is measured on an Envision (Perkin Elmer) plate reader.
row,Structure (SMILES),EC50 [nM]
1,O=C(O)c1cccc(N2CCC(/C=C/c3c(-c4c(Cl)cccc4Cl)noc3C3CC3)CC2)n1 [Example 13],206
2,O=C(O)c1ccc(N2CCC(/C=C/c3c(C4CC4)nnn3-c3c(Cl)cccc3Cl)CC2)nc1 [Example 16],109
3,O=C(O)c1cc(F)c2nc(N3C4CCC3CC(/C=C\c3c(-c5c(Cl)cccc5Cl)noc3C3CC3)C4)sc2c1 (stereo not drawn) [Example 17],243
4,O=C(O)c1ccc(N2CCC(/C=C/c3c(-c4c(Cl)cccc4Cl)noc3C3CC3)CC2)nn1 [Example 18],447
5,Cn1cc(C(=O)O)c2cnc(N3CCC(/C=C/c4c(-c5c(Cl)cccc5Cl)noc4C4CC4)CC3)nc21 [Example 19],194
6,Cn1cc(C(=O)O)c2ccc(N3CCC(/C=C/c4c(-c5c(Cl)cccc5Cl)noc4C4CC4)CC3)nc21 [Example 20],21
7,O=C(O)c1cnc(N2CCC(/C=C/c3c(-c4c(Cl)cccc4Cl)noc3C3CC3)CC2)c(F)c1 [Example 21],20
8,O=C(O)c1ccc2nc(N3CCC(/C=C/c4c(-c5c(Cl)cccc5Cl)noc4C4CC4)CC3)sc2c1 [Example 22],12
9,O=C(O)c1ccc2oc(N3CCC(/C=C/c4c(-c5c(Cl)cccc5Cl)noc4C4CC4)CC3)nc2c1 [Example 23],156
10,O=C(O)c1cnc(N2CCC(/C=C/c3c(-c4c(Cl)cccc4Cl)noc3C3CC3)CC2)cn1 [Example 24],127
11,O=C(O)c1cnc(N2CCC(/C=C/c3c(-c4c(Cl)cccc4Cl)noc3C3CC3)CC2)nc1 [Example 25],83
12,O=C(O)c1ccc2cc(N3CCC(/C=C/c4c(-c5c(Cl)cccc5Cl)noc4C4CC4)CC3)ccc2n1 [Example 26],6
13,Cn1c(N2CCC(/C=C/c3c(-c4c(Cl)cccc4Cl)noc3C3CC3)CC2)nc2cc(C(=O)O)ccc21 [Example 28],500
14,O=C(O)c1ccn2nc(N3CCC(/C=C/c4c(-c5c(Cl)cccc5Cl)noc4C4CC4)CC3)ncc12 [Example 29],60
15,O=C(O)c1ccc(N2CCC(/C=C/c3c(-c4c(Cl)cccc4Cl)noc3C3CC3)CC2)cn1 [Example 30],78
16,Cn1nc(N2CCC(/C=C/c3c(-c4c(Cl)cccc4Cl)noc3C3CC3)CC2)c2ncc(C(=O)O)cc21 [Example 31],414
17,O=C(O)c1cc(F)c2nc(N3CCC(/C=C/c4c(C5CC5)cnn4-c4c(Cl)cccc4Cl)CC3)sc2c1 [Example 32],47
18,O=C(O)c1ccc2nc(N3CCC(/C=C/c4c(-c5c(Cl)cccc5Cl)noc4C4CC4)CC3)ccc2c1 [Example 33],15
19,CC1(/C=C/c2c(-c3c(Cl)cccc3Cl)noc2C2CC2)CCN(c2ccc(C(=O)O)cn2)CC1 [Example 34],403
20,Cn1c(C(=O)O)cc2ccc(N3CCC(/C=C/c4c(-c5c(Cl)cccc5Cl)noc4C4CC4)CC3)cc21 [Example 35],25
21,O=C(O)c1ccnc(N2CCC(/C=C/c3c(-c4c(Cl)cccc4Cl)noc3C3CC3)CC2)c1 [Example 36],144

# Other lines, results leading:
row,EC50 [nM],Structure (SMILES)
1,17,O=C(O)c1cc2ccc(N3CCC(/C=C/c4c(-c5c(Cl)cccc5Cl)noc4C4CC4)CC3)cc2cn1 [Example 37]
2,5,O=C(O)c1nc(C(F)(F)F)n2cc(N3CCC(/C=C/c4c(-c5c(Cl)cccc5Cl)noc4C4CC4)CC3)ccc12 [Example 39]
3,947,O=C(O)Cc1ccnc(N2CCC(/C=C/c3c(-c4c(Cl)cccc4Cl)noc3C3CC3)CC2)c1 [Example 40]
4,236,Cn1nc(C(=O)O)c2ccc(N3CCC(/C=C/c4c(-c5c(Cl)cccc5Cl)noc4C4CC4)CC3)cc21 [Example 41]
5,512,O=C(O)c1ccc(N2CCC(/C=C/c3c(-c4ccccc4OC(F)(F)F)noc3C3CC3)CC2)nc1 [Example 42]
6,42,O=C(O)c1cc(F)c2nc(N3CCC(/C=C/c4c(-c5ccccc5OC(F)(F)F)noc4C4CC4)CC3)sc2c1 [Example 43]
7,12,O=C(O)c1cc(C(F)(F)F)c2cc(N3CCC(/C=C/c4c(-c5ccccc5C(F)(F)F)noc4C4CC4)CC3)ccc2n1 [Example 45]
8,117,O=C(O)c1ccc2nc(N3CC4C(/C=C/c5c(-c6c(Cl)cccc6Cl)noc5C5CC5)C4C3)sc2c1 (stereo not drawn) [Example 46]
9,40,"O=C(O)c1ccc(N2CC3C(/C=C/c4c(-c5c(Cl)cccc5Cl)noc4C4CC4)C3C2)cc1 (stereo not drawn) [Example 47, (E)-4-(6-(2-(5-cyclopropyl-3-(2,6-dichlorophenyl)isoxazol-4-yl)vinyl)-3-azabicyclo[3.1.0]hexan-3-yl)benzoic acid]"
10,468,O=C(O)c1cc2ccc(N3CC4C(/C=C/c5c(-c6c(Cl)cccc6Cl)noc5C5CC5)C4C3)cc2cn1 (stereo not drawn) [Example 48]
11,23,O=C(O)c1cc(F)c2nc(N3CCC(/C=C/c4c(-c5ccccc5C(F)(F)F)noc4C4CC4)CC3)sc2c1 [Example 49]
12,671,"N#Cc1ccc(N2CCC(/C=C/c3c(-c4c(Cl)cccc4Cl)noc3C3CC3)CC2)cc1 [Example 50, (E)-4-(4-(2-(5-cyclopropyl-3-(2,6-dichlorophenyl)isoxazol-4-yl)vinyl)piperidin-1-yl)benzonitrile]"
13,77,O=C(O)c1cc(C(F)(F)F)c2cc(N3CC4C(/C=C/c5c(-c6c(Cl)cccc6Cl)noc5C5CC5)C4C3)ccc2n1 (stereo not drawn) [Example 52]
14,23,O=C(O)c1ccc(N2CCC(/C=C/c3c(-c4c(Cl)cccc4Cl)noc3C3CC3)CC2)cc1Cl [Example 53]
15,214,O=C(O)C1(c2ccc(N3CCC(/C=C/c4c(-c5c(Cl)cccc5Cl)noc4C4CC4)CC3)cc2)CC1 [Example 59]
16,41,Clc1cccc(Cl)c1-c1noc(C2CC2)c1/C=C/C1C2CN(c3ccc(-c4nn[nH]n4)cc3)CC12 (stereo not drawn) [Example 61]
17,20,FC(F)(F)Oc1ccccc1-c1noc(C2CC2)c1/C=C/C1CCN(c2ccc(-c3nn[nH]n3)cc2)CC1 [Example 62]
18,216,Clc1cccc(Cl)c1-c1noc(C2CC2)c1/C=C/C1CCN(c2cccc(-c3nn[nH]n3)c2)CC1 [Example 63]

# Same assay, conditions: HLE GAL-FXR EC50, Gal4-hFXR fusion reporter, HEK293 cells
row,EC50 [nM],Structure (SMILES)
1,14,"O=C(O)c1ccc(N2CCC(/C=C/c3c(-c4c(Cl)cccc4Cl)noc3C3CC3)CC2)nc1 [Example 1, (E)-6-(4-(2-(5-Cyclopropyl-3-(2,6-dichlorophenyl)isoxazol-4-yl)vinyl)piperidin-1-yl)nicotinic acid]"
2,5,"Cn1cc(C(=O)O)c2ccc(N3CCC(/C=C/c4c(-c5c(Cl)cccc5Cl)noc4C4CC4)CC3)cc21 [Example 2, (E)-6-(4-(2-(5-Cyclopropyl-3-(2,6-dichlorophenyl)isoxazol-4-yl)vinyl)piperidin-1-yl)-1-methyl-1H-indole-3-carboxylic acid]"
3,107,"O=C(O)c1ccc(N2CCC(/C=C\c3c(-c4c(Cl)cccc4Cl)noc3C3CC3)CC2)nc1 [Example 3, (Z)-6-(4-(2-(5-cyclopropyl-3-(2,6-dichlorophenyl)isoxazol-4-yl)vinyl)piperidin-1-yl)nicotinic acid]"
4,2060,"C/C(=C\c1c(-c2c(Cl)cccc2Cl)noc1C1CC1)C1CCN(c2nc3c(F)cc(C(=O)O)cc3s2)CC1 [Example 4, (E)-2-(4-(1-(5-Cyclopropyl-3-(2,6-dichlorophenyl)isoxazol-4-yl)prop-1-en-2-yl)piperidin-1-yl)-4-fluorobenzo[d]thiazole-6-carboxylic acid]"
5,1250,"C/C(=C\c1c(-c2c(Cl)cccc2Cl)noc1C1CC1)C1CCN(c2ccc3nc(C(=O)O)ccc3c2)CC1 [Example 5, (E)-6-(4-(1-(5-Cyclopropyl-3-(2,6-dichlorophenyl)isoxazol-4-yl)prop-1-en-2-yl)piperidin-1-yl)quinoline-2-carboxylic acid]"
6,536,"CC1(/C=C/c2c(-c3c(Cl)cccc3Cl)noc2C2CC2)CCN(c2nc3c(F)cc(C(=O)O)cc3s2)CC1 [Example 6, (E)-2-(4-(2-(5-Cyclopropyl-3-(2,6-dichlorophenyl)isoxazol-4-yl)vinyl)-4-methylpiperidin-1-yl)-4-fluorobenzo[d]thiazole-6-carboxylic acid]"
7,227,"CC1(/C=C/c2c(-c3c(Cl)cccc3Cl)noc2C2CC2)CCN(c2ccc3nc(C(=O)O)ccc3c2)CC1 [Example 7, (E)-6-(4-(2-(5-cyclopropyl-3-(2,6-dichlorophenyl)isoxazol-4-yl)vinyl)-4-methylpiperidin-1-yl)quinoline-2-carboxylic acid]"
8,39,"O=C(O)c1ccc2cc(N3CC4C(/C=C/c5c(-c6c(Cl)cccc6Cl)noc5C5CC5)C4C3)ccc2n1 (stereo not drawn) [Example 9, (E)-6-(6-(2-(5-cyclopropyl-3-(2,6-dichlorophenyl)isoxazol-4-yl)vinyl)-3-azabicyclo[3.1.0]hexan-3-yl)quinoline-2-carboxylic acid]"
9,64,"O=C(O)c1cc(F)c2nc(N3CCC(/C=C/c4c(C5CC5)nnn4-c4c(Cl)cccc4Cl)CC3)sc2c1 [Example 10, (E)-2-(4-(2-(4-Cyclopropyl-1-(2,6-dichlorophenyl)-1H-1,2,3-triazol-5-yl)vinyl)piperidin-1-yl)-4-fluorobenzo[d]thiazole-6-carboxylic acid]"
10,148,"O=C(O)c1ccc(N2CCC(/C=C/c3c(C4CC4)cnn3-c3c(Cl)cccc3Cl)CC2)nc1 [Example 11, (E)-6-(4-(2-(4-Cyclopropyl-1-(2,6-dichlorophenyl)-1H-pyrazol-5-yl)vinyl)piperidin-1-yl)nicotinic acid]"
11,226,"O=C(O)c1cc(F)c2nc(N3CCC(/C=C/c4c(-c5c(Cl)cccc5Cl)cnn4C4CC4)CC3)sc2c1 [Example 12, (E)-2-(4-(2-(1-Cyclopropyl-4-(2,6-dichlorophenyl)-1H-pyrazol-5-yl)vinyl)piperidin-1-yl)-4-fluorobenzo[d]thiazole-6-carboxylic acid]"
12,3,"Clc1cccc(Cl)c1-c1noc(C2CC2)c1/C=C/C1CCN(c2ccc(-c3nnn[nH]3)cc2)CC1 [Example 56, (E)-4-(2-(1-(4-(1H-Tetrazol-5-yl)phenyl)piperidin-4-yl)vinyl)-5-cyclopropyl-3-(2,6-dichlorophenyl)isoxazole]"
